# In US20110118262A1, “Pyrrolidinyl and Piperidinyl Compounds Useful as NHE-1 Inhibitiors” (BOEHRINGER INGELHEIM INTERNATIONAL GMBH, priority 2008, published 2011):
# Biological target: T1, NHE-1 (Homo sapiens, UniProt P19634)
# T1 construct: endogenous in cells; host or cells: HT-29
# Experiment: Evaluation of NHE-1 Inhibition (pHi) in HT-29 cells
# Assay type: cell-based
# Settings: BCECF dye, 50% inhibition of the intracellular pH recovery, read-out: NHE1 HT29 pHi IC50
# Outline: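 Intracellular pH measured with BCECF in HT-29 cells after 24 h culture. Cells dye-loaded 30 min at 37° C, then acid-loaded with NH4Cl-containing choline buffer (pH 7.5) for 30 min at RT. Compounds added on an FDSS6000 fluorescence reader.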
# T1 sequence (P19634 whole entry): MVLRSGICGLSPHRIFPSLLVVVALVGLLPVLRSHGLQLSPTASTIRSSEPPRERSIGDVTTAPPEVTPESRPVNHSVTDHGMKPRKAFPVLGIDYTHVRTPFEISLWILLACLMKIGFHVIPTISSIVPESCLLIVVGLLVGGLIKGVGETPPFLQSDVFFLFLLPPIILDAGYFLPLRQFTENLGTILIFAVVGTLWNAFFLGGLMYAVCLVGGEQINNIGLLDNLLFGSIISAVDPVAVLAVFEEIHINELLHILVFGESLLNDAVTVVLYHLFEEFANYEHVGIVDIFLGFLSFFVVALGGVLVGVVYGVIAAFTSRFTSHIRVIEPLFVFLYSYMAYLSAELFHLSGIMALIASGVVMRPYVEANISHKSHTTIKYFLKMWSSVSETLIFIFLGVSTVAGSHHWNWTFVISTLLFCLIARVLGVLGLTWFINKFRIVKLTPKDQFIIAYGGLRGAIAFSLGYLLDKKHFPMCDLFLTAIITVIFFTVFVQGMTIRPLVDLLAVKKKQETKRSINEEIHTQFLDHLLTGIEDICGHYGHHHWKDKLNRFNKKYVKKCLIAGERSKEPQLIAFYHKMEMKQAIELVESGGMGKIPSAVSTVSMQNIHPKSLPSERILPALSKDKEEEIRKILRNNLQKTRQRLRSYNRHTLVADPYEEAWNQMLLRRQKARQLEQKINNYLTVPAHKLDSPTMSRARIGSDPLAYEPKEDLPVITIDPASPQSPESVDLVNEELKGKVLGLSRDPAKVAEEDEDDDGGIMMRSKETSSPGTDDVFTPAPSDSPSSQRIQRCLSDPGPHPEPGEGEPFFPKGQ
row,Compound,IC50 [nM]
1,COc1ncccc1C(=O)N1CCC(c2ccc(C(=O)NC(=N)N)cc2C(F)(F)F)CC1 [N-{4-[1-(2-Methoxy-pyridine-3-carbonyl)-piperidin-4-yl]-3-trifluoromethyl-benzoyl}-guanidine],42
2,COc1cc(C(=O)N2CCC(c3ccc(C(=O)NC(=N)N)cc3C(F)(F)F)CC2)ccn1 [N-{4-[1-(2-Methoxy-pyridine-4-carbonyl)-piperidin-4-yl]-3-trifluoromethyl-benzoyl}-guanidine],40
3,Cc1ccccc1C(=O)N1CCC(c2ccc(C(=O)NC(=N)N)cc2C(F)(F)F)CC1 [N-{4-[1-(2-Methyl-benzoyl)-piperidin-4-yl]-3-trifluoromethyl-benzoyl}-guanidine],51
4,CC1(C(=O)N2CCC(c3ccc(C(=O)NC(=N)N)cc3C(F)(F)F)CC2)CCCN1 (stereo not drawn) [N-{4-[1-(2-Methyl-pyrrolidine-2-carbonyl)-piperidin-4-yl]-3-trifluoromethyl-benzoyl}-guanidine],12
5,N=C(N)NC(=O)c1ccc(C2CCN(C(=O)CN3CCOCC3)CC2)c(C(F)(F)F)c1 [N-{4-[1-(2-Morpholin-4-yl-acetyl)-piperidin-4-yl]-3-trifluoromethyl-benzoyl}-guanidine],25
6,N=C(N)NC(=O)c1ccc(C2CCN(C(=O)Cc3cccnc3)CC2)c(C(F)(F)F)c1 [N-{4-[1-(2-Pyridin-3-yl-acetyl)-piperidin-4-yl]-3-trifluoromethyl-benzoyl}-guanidine],27
7,Cc1cc(C2CCN(C(=O)CN(C)C)CC2)c(C(F)(F)F)cc1C(=O)NC(=N)N [N-{4-[1-(2-dimethylamino-acetyl)-piperidin-4-yl]-2-methyl-5-trifluoromethyl-benzoyl}-guanidine],6
8,N=C(N)NC(=O)c1ccc(C2CCN(C(=O)CCN)CC2)c(C(F)(F)F)c1 [N-{4-[1-(3-Amino-propionyl)-piperidin-4-yl]-3-trifluoromethyl-benzoyl}-guanidine],8
9,N=C(N)NC(=O)c1ccc(C2CCN(C(=O)c3cccc(Br)c3)CC2)c(C(F)(F)F)c1 [N-{4-[1-(3-Bromo-benzoyl)-piperidin-4-yl]-3-trifluoromethyl-benzoyl}-guanidine],180
10,COc1cc(C2CCN(C(=O)c3cccc(C#N)c3)CC2)c(C(F)(F)F)cc1C(=O)NC(=N)N [N-{4-[1-(3-Cyano-benzoyl)-piperidin-4-yl]-2-methoxy-5-trifluoromethyl-benzoyl}-guanidine],19
11,N#Cc1cccc(C(=O)N2CCC(c3ccc(C(=O)NC(=N)N)cc3C(F)(F)F)CC2)c1 [N-{4-[1-(3-Cyano-benzoyl)-piperidin-4-yl]-3-trifluoromethyl-benzoyl}-guanidine],65
12,CN(C)c1cccc(C(=O)N2CCC(c3ccc(C(=O)NC(=N)N)cc3C(F)(F)F)CC2)c1 [N-{4-[1-(3-Dimethylamino-benzoyl)-piperidin-4-yl]-3-trifluoromethyl-benzoyl}-guanidine],77
13,CN(C)CCC(=O)N1CCC(c2ccc(C(=O)NC(=N)N)cc2C(F)(F)F)CC1 [N-{4-[1-(3-Dimethylamino-propionyl)-piperidin-4-yl]-3-trifluoromethyl-benzoyl}-guanidine],10
14,N=C(N)NC(=O)c1ccc(C2CCN(C(=O)c3cccc(F)c3)CC2)c(C(F)(F)F)c1 [N-{4-[1-(3-Fluoro-benzoyl)-piperidin-4-yl]-3-trifluoromethyl-benzoyl}-guanidine],105
15,CS(=O)(=O)c1cccc(C(=O)N2CCC(c3ccc(C(=O)NC(=N)N)cc3C(F)(F)F)CC2)c1 [N-{4-[1-(3-Methanesulfonyl-benzoyl)-piperidin-4-yl]-3-trifluoromethyl-benzoyl}-guanidine],63
16,COc1cc(C(=O)N2CCC(c3ccc(C(=O)NC(=N)N)cc3C(F)(F)F)CC2)ccc1-c1cccnc1 [N-{4-[1-(3-Methoxy-4-pyridin-3-yl-benzoyl)-piperidin-4-yl]-3-trifluoromethyl-benzoyl}-guanidine],66
17,COc1cccc(C(=O)N2CCC(c3ccc(C(=O)NC(=N)N)cc3C(F)(F)F)CC2)c1 [N-{4-[1-(3-Methoxy-benzoyl)-piperidin-4-yl]-3-trifluoromethyl-benzoyl}-guanidine],106
18,COCCC(=O)N1CCC(c2ccc(C(=O)NC(=N)N)cc2C(F)(F)F)CC1 [N-{4-[1-(3-Methoxy-propionyl)-piperidin-4-yl]-3-trifluoromethyl-benzoyl}-guanidine],20
19,COc1cccnc1C(=O)N1CCC(c2ccc(C(=O)NC(=N)N)cc2C(F)(F)F)CC1 [N-{4-[1-(3-Methoxy-pyridine-2-carbonyl)-piperidin-4-yl]-3-trifluoromethyl-benzoyl}-guanidine],55
20,Cn1cncc1C(=O)N1CCC(c2ccc(C(=O)NC(=N)N)cc2C(F)(F)F)CC1 [N-{4-[1-(3-Methyl-3H-imidazole-4-carbonyl)-piperidin-4-yl]-3-trifluoromethyl-benzoyl}-guanidine],15
21,CC(C)CC(=O)N1CCC(c2ccc(C(=O)NC(=N)N)cc2C(F)(F)F)CC1 [N-{4-[1-(3-Methyl-butyryl)-piperidin-4-yl]-3-trifluoromethyl-benzoyl}-guanidine],49
22,N=C(N)NC(=O)c1ccc(C2CCN(C(=O)c3cccc(-c4cnco4)c3)CC2)c(C(F)(F)F)c1 [N-{4-[1-(3-Oxazol-5-yl-benzoyl)-piperidin-4-yl]-3-trifluoromethyl-benzoyl}-guanidine],14
23,N=C(N)NC(=O)c1ccc(C2CCN(C(=O)CCc3ccccc3)CC2)c(C(F)(F)F)c1 [N-{4-[1-(3-Phenyl-propionyl)-piperidin-4-yl]-3-trifluoromethyl-benzoyl}-guanidine],75
24,N=C(N)NC(=O)c1ccc(C2CCN(C(=O)c3cccc(-n4cccn4)c3)CC2)c(C(F)(F)F)c1 [N-{4-[1-(3-Pyrazol-1-yl-benzoyl)-piperidin-4-yl]-3-trifluoromethyl-benzoyl}-guanidine],150
25,N=C(N)NC(=O)c1ccc(C2CCN(C(=O)c3cccc(-c4ccccn4)c3)CC2)c(C(F)(F)F)c1 [N-{4-[1-(3-Pyridin-2-yl-benzoyl)-piperidin-4-yl]-3-trifluoromethyl-benzoyl}-guanidine],147
26,N=C(N)NC(=O)c1ccc(C2CCN(C(=O)c3cccc(-c4cccnc4)c3)CC2)c(C(F)(F)F)c1 [N-{4-[1-(3-Pyridin-3-yl-benzoyl)-piperidin-4-yl]-3-trifluoromethyl-benzoyl}-guanidine],140
27,N=C(N)NC(=O)c1ccc(C2CCN(C(=O)c3cccc(S(=O)(=O)C(F)(F)F)c3)CC2)c(C(F)(F)F)c1 [N-{4-[1-(3-Trifluoromethanesulfonyl-benzoyl)-piperidin-4-yl]-3-trifluoromethyl-benzoyl}-guanidine],280
28,CS(=O)(=O)c1cc(C(=O)NC(=N)N)ccc1C1CCN(C(=O)c2cccc(C#N)c2)CC1 [N-{4-[1-(3-cyano-benzoyl)-piperidin-4-yl]-3-methanesulfonyl-benzoyl}-guanidine],34
29,Cc1cc(C2CCN(C(=O)c3cccc(C#N)c3)CC2)c(S(C)(=O)=O)cc1C(=O)NC(=N)N [N-{4-[1-(3-cyano-benzoyl)-piperidin-4-yl]-5-methanesulfonyl-2-methyl-benzoyl}-guanidine],23
30,"N=C(N)NC(=O)c1ccc(C2=CCN(C(=O)c3cnc[nH]3)CC2)c(C(F)(F)F)c1 [N-{4-[1-(3H-Imidazole-4-carbonyl)-1,2,3,6-tetrahydro-pyridin-4-yl]-3-trifluoromethyl-benzoyl}-guanidine]",26
